# Data as given in patent US20110319491A1, “ANHYDROUS DEPIGMENTING COMPOSITIONS COMPRISING, WITHIN THE FATTY PHASE THEREOF, A SOLUBILIZED PHENOLIC COMPOUND AND A RETINOID” (GALDERMA RESEARCH & DEVELOPMENT, priority 2009, published 2011).
# How the values were obtained:
# [1] = Chemical stability of the formulations (HPLC assay of the active agents); format: physicochemical
# Experimental: The chemical stability is measured by assaying the active agents by external calibration in HPLC and the results are expressed as a % of […] relative to the theoretical value.
# [2] = in all the solvents that may be used for retinoids; cited from earlier work
smiles,measurement,setting,value
"COc1ccc(-c2ccc3cc(C(=O)O)ccc3c2)cc1C12CC3CC(CC(C3)C1)C2 [Adapalene, 6-(3-(1-adamantyl)-4-methoxyphenyl)-2-naphthoic acid]","Chemical stability: adapalene assay, % relative to the theoretical value","[1]; in composition of Example 2, 40° C., T + 1 M",92.4%
same,"Chemical stability: adapalene assay, % relative to the theoretical value","[1]; in composition of Example 2, 40° C., T + 2 M",96.8%
same,"Chemical stability: adapalene assay, % relative to the theoretical value","[1]; in composition of Example 2, 40° C., T + 3 M",94.5%
same,"Chemical stability: adapalene assay, % relative to the theoretical value","[1]; in composition of Example 2, RT, T + 1 M",94%
same,"Chemical stability: adapalene assay, % relative to the theoretical value","[1]; in composition of Example 2, RT, T + 2 M",97.4%
same,"Chemical stability: adapalene assay, % relative to the theoretical value","[1]; in composition of Example 2, RT, T + 3 M",95.3%
same,"Chemical stability: adapalene assay, % relative to the theoretical value","[1]; in composition of Example 3, 4° C., T + 1 M",104%
same,"Chemical stability: adapalene assay, % relative to the theoretical value","[1]; in composition of Example 3, 4° C., T + 2 M",107.0%
same,"Chemical stability: adapalene assay, % relative to the theoretical value","[1]; in composition of Example 3, 40° C., T + 1 M",108%
same,"Chemical stability: adapalene assay, % relative to the theoretical value","[1]; in composition of Example 3, 40° C., T + 2 M",106.0%
same,"Chemical stability: adapalene assay, % relative to the theoretical value","[1]; in composition of Example 3, RT, T0",108.7%
same,"Chemical stability: adapalene assay, % relative to the theoretical value","[1]; in composition of Example 3, RT, T + 1 M",106%
same,"Chemical stability: adapalene assay, % relative to the theoretical value","[1]; in composition of Example 3, RT, T + 2 M",106.0%
same,Solubility of adapalene (in words),[2],insoluble
